Assay results reported in patent US20260125388A1 (priority 2022, published 2026).
Converted amounts (≈) assume the structure as drawn. Where two headings read alike, the source gives them in different places.

What was measured:
HEK293 cells = experiment: Cytotoxicity, CellTiter-Glo cell viability assay; type: cell-based, human; details: for Cytotoxicity LD50: HEK293 cells, CellTiter-Glo, Table 3
Protocol: Compounds with increased cytotoxicity can be identified using an in vitro cytotoxicity assay. Therefore, human embryonic kidney 293T (HEK293T) cell lines were purchased (ATCC) and cultured in 75 cm2 flasks (CellStar). Cells were grown in DMEM/High Glucose (Hyclone, #SH3024301) media to which non-essential amino acids (Hyclone, #SH30238.01), 10 mM HEPES (Hyclone, #SH302237.01), 5×106 units of penicillin and streptomycin (Hyclone, #SV30010), and 10% of heat inactivated fetal bovine serum (Gibco, #10082147) were added. Cells were harvested using 0.05% Trypsin (Hyclone, #SH3023601). The cell viability assay was evaluated using CellTiter-Glo™ Luminescent Cell Viability Assay Kit (Promega, Madison, WI), which contains luciferase and all its substrate except ATP. The controls for the cytotoxicity assay used were (E)-10-(bromotriphenylphosphoranyl)decyl 4-(4-(tert-butyl)phenyl)-4-oxobut-2-enoate (400 μM in DMSO, positive control) and DMSO (negative control). All luminescence readings were performed on a Tecan Infinite M1000 plate reader. Small volume transfers were performed on the Tecan Freedom EVO liquid handling system with a 100 nL pin tool transfer (V&P Scientific). Serial dilutions were done in 96-well polypropylene plates (Coming, #3365) and assays were conducted in 384-well white optical bottom plates. The assays were carried out in quadruplet in three independent runs. The data were normalized to the controls and if possible analyzed by nonlinear regression (GraphPad Prism).

[1] = Aqueous solubility, shake flask in PBS buffer; type: physicochemical
Protocol: 5-50 mg of compound was added to 500 μL of PBS buffer at pH 7.4. The pH was adjusted if necessary, using a 1M NaOH solution. The solutions were vortexed for 10 s, sonicated for 2 min and agitated with a horizontal shaker in a closed vial for 24 h. The mixtures were transferred to an Eppendorf tube and centrifuged for 5 min at 16000×g followed by filtration through […] cellulose acetate spin X centrifuge filter (Costar). 200 μL of filtrate was transferred to a new Eppendorf tube and 200 μL of methanol was added and then subsequent dilution was made in 50:50 methanol/PBS buffer water if necessary. After mixing, 50 μL were transferred into a 384 well plate (Coring UV star, 781801) for UV detection at 250-600 nm (Tecan M1000). The assay was carried out with three independent samples of each compound. The concentration of each solution was determined with a calibration curve in 50:50 methanol/PBS buffer water. Absorbance of corresponding methanol PBS blank were recorded and subtracted from the absorbance of calibration curve solutions and from the samples.

GABAA receptor = GABAA receptor binding, competition assay with [3H]-flunitrazepam and rat brain membranes; details: for GABAAR binding, % inhibition at 10 μM: Table 3
Protocol: GABAA receptor binding: Rat brain membranes were prepared from frozen tissue that was thawed on ice and homogenized on ice in 10 volumes of cold lysis buffer (50 mM Tris HCl, pH 7.4, containing protease inhibitor cocktail from Roche) using a Polytron homogenizer (6 pulses and 10 seconds per pulse). The homogenate was centrifuged at 1,000×g for 10 min at 4° C. to obtain the supernatant. The supernatant was then centrifuged at 40,000×g for 20 min, and the resulting supernatant decanted and replaced with the same ice-cold lysis buffer. Two or three additional rounds of homogenization-centrifugation were performed to ensure thorough homogenization and also to wash out endogenous ligands. The final pellet was resuspended in the same buffer and homogenized one last time. […] Total binding and nonspecific binding were determined with reference compound clonazepam. […] Scintillation cocktail is then melted onto the microwave-dried filters on a hot plate and radioactivity counted in a Microbeta counter. The data (n=6) were analyzed by nonlinear regression.

in vitro = details: PAMPA, pH 7.4
Protocol: (§1) The artificial membrane was prepared by carefully pipetting 15 μL of the 5% (v/v) hexadecane in hexane solution to each of the wells of the donor plate. The plate was placed into a fume hood for 1 h to ensure complete evaporation of the hexane. After the hexane had evaporated, 300 μL of PBS with 5% (v/v) DMSO was added to each of the wells of the acceptor plate. The hexadecane treated donor plate was then placed on top of the acceptor plate taking care that the underside of the membrane is completely in contact with the solution in each of the acceptor wells. […] The lid was placed on the plates and the entire plate sandwich was placed into a closed humid environment. The container was then placed on a reciprocal shaker for agitation at about 100 rpm. The time at the beginning of the incubation was recorded, as this is a thermodynamic-based assay. The incubation was then allowed to continue for 18 h. The donor plate was removed and 50 μL of the acceptor solution was transferred to the UV plate. Drug solutions at the theoretical equilibrium concentration (100 μM) was also prepared and transferred to the UV plate. The absorbance of the solutions in the UV plate was then scanned from 250-600 nm with 1 nm steps and a 5 nm bandwidth. Log Pe was calculated as follows (Equation 1).

[2] = test system: IL-6, IL-10, IL-13 and TSLP mRNA in mouse ears; experiment: RT-PCR of cytokine mRNA in ears of MC903 challenged mice; type: in vivo; details: ear mRNA, vs vehicle
Protocol: RT-PCR was used to assay the change in cytokines in MC903 challenged animals treated with PI-301. Left mouse ears stored at −20° C. were thawed, rinsed with water and homogenized in 500 μL RLT buffer (Qiagen, 79216). The liquid was added to a QIAshredder (Qiagen, 79654) and centrifuged at 6000 g for 2 min. 350 μL of the supernatant was combined with 350 μL 70% ethanol and mRNA purified with a RNeasy Mini Kit (Qiagen, 74104). mRNA was analyzed using the Accuris qMAX Green One-Step RT-qPCR Kit (Accuris Instruments) along with primers for IL-4, IL-5, IL-6, IL-10, IL-13, INFγ, and TSLP. Data were acquired using an Eppendorf Mastercycler Pro (45° C. 10 min, 95° C. 2 min, [95° C. 30 s, 55° C. 1 min, 72° C. 2 min]×45) and analyzed by the Delta and Delta-Delta Ct method. Each measurement was carried out in triplicate.

[3] = test system: C57/BL6 male mice challenged with MC903; experiment: Mouse atopic dermatitis model, MC903 challenge, twice daily oral dosing; type: in vivo
From the text: An established mouse model of atopic dermatitis (AD) was used to evaluate the efficacy of PI-301 ((R)-8-bromo-6-(2-fluorophenyl)-4-methyl-4H-benzo[f]-imidazo[1,5-a][1,4]diazepine-3-carboxylic acid) in reducing ear thickness, scratching frequency, and inflammatory markers following MC903 challenge (for background on the model see: J Invest Dermatol 138, 2606-2616; Proc Natl Acad Sci USA, 103, 11736-11741; Sci Transl Med, 5, 170ra116; J Invest Dermatol, 138, 1555-1563). The increase of ear thickness is based on the increased diameter of stratum, epidermis, and dermis as determined by standard histological analysis. The thickening of the stratum is based on parakeratosis and hyperkeratosis, the thickening of the epidermis is based on acanthosis and spongiosis and the thickening of the dermis is based on inflammatory infiltration. This reflects increased numbers of neutrophils, mast cells, and, to a lesser extent, eosinophils.
C57/BL6 male mice 8 weeks of age were group housed under a 12 h light/dark cycle. For oral dosing, groups of 8 mice were each given twice daily treatment by voluntary feeding of vehicle (peanut butter) or PI-301 (100 mg/kg in vehicle). Animal weights were recorded daily. Three times per week animals were administered MC903 (1 nmol) on both ears topically. Ear thickness was measured with calipers and photographed.

[4] = test system: C57/BL6 mice challenged with MC903; experiment: Acute treatment in the MC903 mouse model, scratch count; type: in vivo; details: single oral gavage on day 19; recording from 40 min after dose; oclacitinib 45 mg/kg, PI-301 100 mg/kg; p<0.05 vs vehicle
Protocol: In another study, the acute treatment effects of oclacitinib (a JAK inhibitor approved for veterinary use) and PI-301 were studied in the MC903 model using C57/BL6 mice. As described previously, MC903 was applied topically on both sides of both ears (1 nmol). On day 19 of the study (D1), drugs or vehicle were administered to individual treatment groups by oral gavage: oclacitinib (45 mg/kg) or PI-301 (100 mg/kg). Mice were video recorded for 60 minutes beginning 40 minutes after drug administration and scratches counted.

[5] = parallel artificial membrane permeation assay at pH 7.4
Protocol: as §1

[6] = 10 μM, 3H-flunitrazepam, rat brain extract
[7] = read-out: GABAAR binding (IC50), value in brackets, 3H-flunitrazepam, rat brain extract, Table 3, unit inferred

C#Cc1ccc2c(c1)C(c1ccccc1F)=NC1(CC1)c1c(C(=O)OCC)ncn1-2 [Compound 18]
Cytotoxicity LD50 (HEK293 cells): >150 µM | solubility at 24 h ([1]; PBS buffer, aqueous buffer, thermodynamic from solid, pH 7.2, read-out: Aqueous solubility): 53 ± 3 µM (≈ 21.2 µg/mL) | GABAAR binding, % inhibition at 10 μM (GABAA receptor; [6]): 56% | IC50 (GABAA receptor; [7]): 509 nM | Papp (in vitro): 25.1 ×10⁻⁶ cm/s

C[C@H]1N=C(c2ccccc2F)c2cc(Br)ccc2-n2cnc(C(=O)O)c21 [PI-301, (R)-8-bromo-6-(2-fluorophenyl)-4-methyl-4H-benzo[f]-imidazo[1,5-a][1,4]diazepine-3-carboxylic acid]
IL-6 induction [2]: reduced induction | IL-10 induction [2]: reduced induction | IL-13 induction [2]: reduced induction | TSLP induction [2]: reduced induction | number of scratches ([3]; 100 mg/kg oral twice daily, days 19 and 22, vs vehicle): significantly reduced | increase of ear thickness due to MC903 ([3]; 100 mg/kg oral twice daily, significant on day 10, vs vehicle): reduced the increase of ear thickness | thicknesses of the dermis and epidermis ([3]; histology of H&E stained ear sections, p<0.005 vs vehicle): significant differences | scratches counted over 60 minutes [4]: significant (p<0.05) reduction in scratches

CNS(=O)(=O)C[C@H]1CC[C@H](N(C)c2ncnc3[nH]ccc23)CC1 [oclacitinib, reference compound]
scratches counted over 60 minutes [4]: significant (p<0.05) reduction in scratches

CCC1N=C(c2ccccc2F)c2cc(Br)ccc2NC1=O (stereo not drawn) [Compound 35, 7-bromo-3-ethyl-5-(2-fluorophenyl)-1,3-dihydro-2H-benzo[e][1,4]diazepin-2-one]
Cytotoxicity LD50 (HEK293 cells): >150 µM | Aqueous solubility ([1]; pH 7.2): 397 ± 31 µM | GABAAR binding, % inhibition at 10 μM (GABAA receptor; [6]): 95% | IC50 (GABAA receptor; [7]): 134 nM | Papp (in vitro): 2 ×10⁻⁶ cm/s

O=C(O)c1ncn2c1C1(CCC1)N=C(c1ccccc1F)c1cc(Br)ccc1-2 [Compound 27, 8-bromo-6-(2-fluorophenyl)spiro[benzo[f]imidazo[1,5-a][1,4]diazepine-4,1′-cyclobutane]-3-carboxylic acid]
Cytotoxicity LD50 (HEK293 cells): >300 µM | LD50 HEK293 (HEK293 cells; human kidney cells, Table 2): >400 µM | Aqueous solubility (footnote b: mM) ([1]; pH 7.2, cells marked b): 58.7 ± 4.4 ^b mM | Permeability (log Pe (cm/s)) [5]: −6.6 ± 0.10 cm/s | GABAAR binding, % inhibition at 10 μM (GABAA receptor; [6]): 59% | % Inhibition at 10 μM (GABAA receptor; 10 μM, [3H]-flunitrazepam, rat brain, Table 1): 59.4% | IC50 (GABAA receptor; [3H]-flunitrazepam, rat brain, Table 1): 1830 nM | IC50 (GABAA receptor; [7]): 1830 nM
